Results published in patent publication US9133235B2, “Macrocyclic antagonists of the motilin receptor for treatment of gastrointestinal dysmotility disorders” (Ocera Therapeutics, Inc., priority 2006, dated 2015).
Read-outs that look alike come from different tables or passages of the source.

Assays:
CYP2C19 = biological target: T1, CYP2C19 (Homo sapiens, UniProt P33261); assay: Cytochrome P450 inhibition, CYP2C19; format: in vitro ADME; details: Supersomes; read-out: IC50 (μM) 2C19
T1 construct: purchased BD Gentest, Becton-Dickinson (Supersomes); host or cells: insect cells (microsomes)
T1 sequence (P33261 whole entry): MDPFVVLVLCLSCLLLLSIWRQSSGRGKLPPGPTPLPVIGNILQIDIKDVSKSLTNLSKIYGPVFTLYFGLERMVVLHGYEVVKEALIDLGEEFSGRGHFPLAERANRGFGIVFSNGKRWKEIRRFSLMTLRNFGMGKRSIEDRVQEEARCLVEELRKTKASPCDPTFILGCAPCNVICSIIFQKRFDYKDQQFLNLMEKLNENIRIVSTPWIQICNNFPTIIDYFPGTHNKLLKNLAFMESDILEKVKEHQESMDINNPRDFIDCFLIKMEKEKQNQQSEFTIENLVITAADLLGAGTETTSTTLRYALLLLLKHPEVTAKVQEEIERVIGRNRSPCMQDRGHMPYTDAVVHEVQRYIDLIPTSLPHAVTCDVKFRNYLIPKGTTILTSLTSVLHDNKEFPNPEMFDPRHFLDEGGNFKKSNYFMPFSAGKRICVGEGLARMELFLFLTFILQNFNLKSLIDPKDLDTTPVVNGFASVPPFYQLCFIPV
Text: (§1) F. Assay for Cytochrome P450 Inhibition
(§2) Cytochrome P450 enzymes are implicated in the phase I metabolism of drugs. The majority of drug-drug interactions are metabolism-based and, moreover, these interactions typically involve inhibition of cytochrome P450s. Six CYP450 enzymes (CYP1A2, CYP2C8, CYP2C9, CYP2C19, CYP2D6 and CYP3A4) appear to be commonly responsible for the metabolism of most drugs and the associated drug-drug interactions. Assays to determine the binding of compounds of the invention to the various metabolically important isoforms of cytochrome P450 metabolizing enzymes are commercially available, for example NoAb BioDiscoveries (Mississaugua, ON, Canada) and Absorption Systems (Exton, Pa., USA). As well, a number of appropriate methods have been described or reviewed in the literature. (White, R. E. Ann. Rev. Pharmacol. Toxicol. 2000, 40, 133-157; Li, A. P. Drug. Disc. Today 2001, 6, 357-366; Turpeinen, M.; Korhonen, L. E. Tolonen, A.; et al. Eur. J. Pharm. Sci. 2006, 29, 130-138.)
(§3) The concentration of the inhibitor or test compound that inhibited metabolite formation by 50% (IC50) was calculated by non-linear regression analysis of the % inhibition vs. log concentration (M) curve.

CYP2C9 = biological target: T2, CYP2C9 (Homo sapiens, UniProt P11712); assay: Cytochrome P450 inhibition, CYP2C9; format: in vitro ADME; details: Supersomes; read-out: IC50 (μM) 2C9
T2 construct: purchased BD Gentest, Becton-Dickinson (Supersomes); host or cells: insect cells (microsomes)
T2 sequence (P11712 whole entry): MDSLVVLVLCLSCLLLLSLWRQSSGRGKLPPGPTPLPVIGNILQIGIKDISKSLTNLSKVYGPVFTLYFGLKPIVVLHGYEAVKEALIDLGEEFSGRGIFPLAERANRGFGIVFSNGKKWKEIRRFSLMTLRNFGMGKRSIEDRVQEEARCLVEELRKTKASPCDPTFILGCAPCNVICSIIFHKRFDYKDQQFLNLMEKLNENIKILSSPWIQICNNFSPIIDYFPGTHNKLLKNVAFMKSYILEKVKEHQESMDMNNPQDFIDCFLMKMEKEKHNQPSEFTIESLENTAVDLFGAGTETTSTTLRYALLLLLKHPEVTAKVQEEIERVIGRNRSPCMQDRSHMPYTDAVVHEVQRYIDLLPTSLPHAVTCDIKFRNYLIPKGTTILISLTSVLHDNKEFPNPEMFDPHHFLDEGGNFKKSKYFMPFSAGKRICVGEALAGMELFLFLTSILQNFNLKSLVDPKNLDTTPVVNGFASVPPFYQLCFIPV
Text: as §1, §2, §3

[1] = Pharmacokinetic analysis in rat (i.v., s.c., p.o.); format: in vivo; details: for half-life: read-out: Elimination (t1/2, min)
Text: I. Pharmacokinetic Analysis of Representative Compounds of the Invention
The pharmacokinetic behavior of compound of the invention can be ascertained by methods well known to those skilled in the art. (Wilkinson, G. R. “Pharmacokinetics: The Dynamics of Drug Absorption, Distribution, and Elimination” in Goodman & Gilman's The Pharmacological Basis of Therapeutics, Tenth Edition, Hardman, J. G.; Limbird, L. E., Eds., McGraw Hill, Columbus, Ohio, 2001, Chapter 1.) The following method was used to investigate the pharmacokinetic parameters (elimination half-life, total plasma clearance, etc.) for intravenous, subcutaneous and oral administration of compounds of the present invention.
Rats: male, Sprague-Dawley (˜250 g)
Rats/Treatment Group: 6 (2 subsets of 3 rats each, alternate bleeds)
Each sample of test compound was sent in solution in a formulation (such as with cyclodextrin) appropriate for dosing. It will be appreciated by one skilled in the art that appropriate modifications to this protocol can be made as required to adequately test the properties of the compound under analysis.
1. Intravenous (i.v.): 2 mg/kg
2. Subcutaneous(s.c): 2 mg/kg
Plasma Collection 1. Same protocol for all dosing groups 2. For each group, 2 subsets (A and B) of 3 rats/subset
At the time intervals indicated above, 0.7 mL of blood were collected from each animal. It is expected that this volume of blood will yield a sample of at least 0.3 mL of plasma. EDTA was used as an anti-coagulant for whole blood collection. Whole blood samples were chilled and immediately processed by centrifugation to obtain plasma.
Plasma samples were stored frozen (−70° C.) until analysis. Analytical detection of parent compound in plasma samples performed by LC-MS after an appropriate preparation protocol: extraction using solid phase extraction (SPE) cartridges (Oasis MCX, Oasis HLB) or liquid-liquid extraction.
Column: Atlantis dC18 from Waters 2.1×30 mm
A: 95% MeOH, 5% water, 0.1% TFA
B: 95% water, 5% MeOH, 0.1% TFA
The analyte was quantitated based upon a standard curve and the method validated with internal standards.

CYP2E1 = biological target: T3, CYP2E1 (Homo sapiens, UniProt P05181); assay: Cytochrome P450 inhibition, CYP2E1; format: in vitro ADME; details: Supersomes; read-out: IC50 (μM) 2E1
T3 construct: purchased BD Gentest, Becton-Dickinson (Supersomes); host or cells: insect cells (microsomes)
T3 sequence (P05181 whole entry): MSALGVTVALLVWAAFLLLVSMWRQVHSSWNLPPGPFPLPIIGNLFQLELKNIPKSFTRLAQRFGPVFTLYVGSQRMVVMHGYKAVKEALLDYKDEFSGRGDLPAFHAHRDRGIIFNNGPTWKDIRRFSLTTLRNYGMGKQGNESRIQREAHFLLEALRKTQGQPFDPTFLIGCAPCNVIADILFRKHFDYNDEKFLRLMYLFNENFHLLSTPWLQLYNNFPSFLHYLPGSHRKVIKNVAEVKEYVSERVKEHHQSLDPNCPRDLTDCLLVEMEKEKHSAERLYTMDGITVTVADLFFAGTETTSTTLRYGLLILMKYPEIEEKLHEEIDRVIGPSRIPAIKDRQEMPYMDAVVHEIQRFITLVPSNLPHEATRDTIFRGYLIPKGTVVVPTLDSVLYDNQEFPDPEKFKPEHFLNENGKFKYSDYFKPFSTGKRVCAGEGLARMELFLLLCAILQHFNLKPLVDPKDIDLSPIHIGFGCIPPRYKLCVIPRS
Text: as §1, §2, §3

Row | Structure (SMILES) | IC50 (CYP2C19) [µM] | IC50 (CYP2C9) [µM] | Clearance ([1]; i.v.) [mL/min/kg] | Elimination (t1/2, min) ([1]; i.v., typical dose 2 mg/kg) [min] | Elimination (t1/2, min) ([1]; p.o., typical dose 8 mg/kg, without cyclodextrin) [min] | Bioavailability (oral) ([1]; p.o., without cyclodextrin) [%] | IC50 (CYP2E1) [µM] | Clearance ([1]; male, Sprague-Dawley, plasma, iv, 1.9 mg/kg, i.v., read-out: Clearance) [mL/min/kg] | half-life ([1]; male, Sprague-Dawley, plasma, iv, typical dose 2 mg/kg) [min] | bioavailability ([1]; male, Sprague-Dawley, plasma, po, 8 mg/kg, in the presence of 10% beta-cyclodextrin) [%] | half-life ([1]; male, Sprague-Dawley, plasma, po, typical dose 8 mg/kg, in the presence of 10% beta-cyclodextrin) [min] | half-life ([1]; male, Sprague-Dawley, plasma, sc, typical dose 2 mg/kg) [min] | Clearance ([1]; s.c.) [mL/min/kg] | Elimination (t1/2, min) ([1]; s.c., typical dose 2 mg/kg) [min]
1 | CCC[C@@H]1NC(=O)[C@@H](C(C)C)NC(=O)[C@@H](Cc2cccc(F)c2)N[C@@H](C)COc2ccccc2CCCNC1=O [Compound 551] | 37 | 26.9 | 33 | 139 | 70 to 125 | 6 | > 100 | – | – | – | – | – | – | –
2 | CCC[C@@H]1NC(=O)[C@@H](C(C)C)NC(=O)[C@@H](Cc2ccc(O)c(Cl)c2)N[C@@H](C)COc2ccccc2CCCNC1=O [Compound 552] | – | – | – | – | – | – | – | 45 | 24 | 10 | 307 | 103 | 39 | –
3 | CC(C)[C@H]1NC(=O)[C@@H](Cc2cccc(C(F)(F)F)c2)NCCOc2ccccc2CCCNC(=O)[C@H](CN(C)C)NC1=O [Compound 502] | – | – | 57 | 102 | – | – | – | – | – | – | – | – | 79 | 146
4 | CCC[C@@H]1NC(=O)[C@@H](C(C)C)NC(=O)[C@@H](Cc2ccc(O)c(C(C)(C)C)c2)NCCOc2ccccc2CCCNC1=O [Compound 553] | > 100 | 44.5 | – | – | – | – | > 100 | – | – | – | – | – | – | –
